Measured values published in patent US12692278B2, “Synthesis methods and compositions of low intermediate and low dichelate intermediate contrast agents” (priority 2021, dated 2026).
Blank lines part the entries; values can stand above or below the compound they belong to.

Key:
[1] = Feasibility of excess DTPA, free Gd3+ by xylenol orange; assay type: physicochemical; conditions: new 12 hour sample before DTPA
Protocol: The metastable intermediate concentration is determined by Example 3, and associated methods described in the present application. A Gd-DOTA synthesis containing metastable intermediates is heated to 95° C. in the presence of a stoichiometric amount of DTPA sufficient to consume all the metastable intermediates. The presence of metastable intermediates can be measured as a function of time. The reaction is continued until a desired metastable intermediate content is obtained. Depending on the amount of free DOTA thus liberated, the free DOTA can be reacted with a positively charged resin, as is known in the art. Alternatively, the free DOTA may serve as a buffer against free Gd3+ formation, as is permitted in some drug formulations. Ten samples were prepared by adding stoichiometric amounts of DTPA to counter the excess Gd3+ and stored at room temperature for 24 hours. Samples were tested using the improved spectrometric xylenol orange method.

[2] = Transmetallation with ZnCl solution; assay type: physicochemical; conditions: free Gd; 10% by weight ZnCl solution; unit not given
Excerpt: 10% by weight ZnCl solution was used to support the serum results, arguing that Zn substitution of Gd in the chelate quantifies the stability of the Gd-DOTA in much the same way that metals in serum block Gd3+ recombination with the chelate, but with more precision, since the contents of bovine serum is variable among mammals.

[3] = Free Gd3+ baseline / in vial, xylenol orange; assay type: physicochemical
Excerpt: Additionally or alternately, an improved version of the xylenol orange titration of free Gd3+ in the USP can be used as both an in-process check and a final product check. To obtain a limit of detection adequate for the product produced in the above claims, UV spectroscopy must be used in conjunction with the titration to measure the xylenol orange/free Gd reaction. Furthermore, an indirect measure of metastable intermediates is obtained when the titration reaction is allowed to proceed past the initial reaction of xylenol orange and free Gd. This is because xylenol orange will pull Gd from the metastable intermediates over time. […] Free Gadolinium was determined by using the spectrometric xylenol orange technique described in previous studies.

[4] = Feasibility of cation exchange (sodium polystyrene sulfonate), free Gd3+ by xylenol orange; assay type: physicochemical; conditions: before sodium polystyrene sulfonate treatment
Protocol: Feasibility of cation exchange as a method of making Gd-DOTA with low metastable intermediates
Using sodium polystyrene sulfonate, rather than the polymer described above.
Ten samples were stored at room temperature with a stoichiometric amount of sodium polystyrene sulfonate.
Samples were tested using the improved spectrometric xylenol orange method.

[5] = Free Gd3+ after exposure to bovine serum; assay type: physicochemical
Protocol: To show these metastable intermediates readily evolve into free Gd3+, Gd-DOTA was placed in a solution of bovine serum and the amount of Gd3+ was measured.
Bovine blood was obtained at a local slaughterhouse, citrated, centrifuged and serum was obtained and frozen. In tests, serum was slowly heated to body temperature and 1% Gd-DOTA by weight was added to serum and placed on rocker for 30 minutes. Ten samples were tested for each test article.

[6] = pH controlled synthesis, free Gd versus synthesis time; assay type: physicochemical
Protocol: Here, Example 1A is modified by the addition of gadolinim oxide in its entirety at first and immediately after the introduction of the DOTA, and this procedure is used to produce batch A of Gd-DOTA. Batch B is produced using the following modified procedure.
• 1. Heat reactor to 95° C. • 2. Charge water with all of gadolinium oxide • 3. Stir (stir unless otherwise indicated, nominal rate 300 rpm) until the solution is clear • 4. Add sufficient DOTA to obtain a pH of 4 • 5. When pH is >5 charge sufficient DOTA to reach pH of 4 • 6. Stir until uniformly distributed in the water, and clear • 7. If pH<4, then go to step 9 • 8. Go to step 4 • 9. Divide remaining portion of DOTA into 5 parts • 10. Add 1 part of remaining DOTA • 11. Stir until uniformly distributed in the water, and clear • 12. If DOTA remains to be added go to step 10 • 13. Continue to cook for a total of 12 hours Results

[7] = Feasibility of acid precipitation, free Gd3+ by xylenol orange; assay type: physicochemical; conditions: 12 hour sample, 1 hr 0.1 M HCl, buffer to pH 7.0, filtration
Protocol: The feasibility of acid precipitation as a method for making Gd-DOTA with low metastable intermediate forms was tested.
(§1) Ten samples were tested using the improved spectrometric xylenol orange method after 1 hr exposure to acid (0.1 M HCl), buffer to pH 7.0, and filtration of the precipitate. • 12 hour Example 1A sample was used at 803 ppm Gd3+ • After acid precipitation (N=5) • 8.6+/−9.2 ppm Gd3+ range: 15.9 ppm Gd3+ to undetectable
as §1, with “1B” for “1A”, “undetectable.” for “undetectable”

[8] = assay type: physicochemical
Excerpt: Ironically, Gd-DTPA has a more favorable binding constant than does Gd-DOTA at pH 7.4. For less basic ligands like Gd-DTPA-BMA and DOTA-(gly)4, the experimental values are closer to the theoretical thermodynamic stability constant because there is less competition from available protons at pH 7.4.

[9] = Free Gd(III) in incompletely synthesized complex solution; assay type: physicochemical; conditions: mean of five reactions
Protocol: Then, the content of free DOTA, free gadolinium, and complex was determined, and the final content of excess free DOTA was set. Five reactions were run, using 4.05 g of DOTA, 15 ml water, and 1.78 g of gadolinium oxide. Ten spectroscopic measurements using Xylenol orange were conducted. […] This is the molar amount of xylenol orange added to each reaction product. One can use: Understanding that the denominator is a constant and Abs^573 is the number of free Gd(III) ions that react with the xylenol orange. This is a conservative measure of ppm, given by the ratio of free gadolinium and total gadolinium in the reactant (×10^6). Another possible definition, which would give a higher number (less conservative) is simply comparing free gadolinium to complexed gadolinium, which would mean ppm of free gadolinium for every million complexed gadolinium.

Compound: CNC[C@H](O)[C@@H](O)[C@H](O)[C@H](O)CO.O=C([O-])CN1CCN(CC(=O)[O-])CCN(CC(=O)O)CCN(CC(=O)[O-])CC1.[Gd+3] [Example 1, Gd-DOTA]
- Gd3+ of starting sample [1]: 2146 ppm
- Transmetallation [2]: 88 +/− 16.8
- Baseline Free Gd3+ ([3]; before serum, ppm adjusted to pre-diluted level at drug concentration): 0.77 +/− 0.92 ppm
- In Vial ([3]; free Gd, no unit printed in this table (ppm in the 1st table)): 0.77 +/− 0.92
- Gd3+ of starting sample [4]: 2146 ppm
- Free Gd+ after serum ([5]; 1% Gd-DOTA by weight in bovine serum, body temperature, rocker 30 minutes, ppm adjusted to pre-diluted level): 88 +/− 16.8 ppm
- In Serum ([5]; free Gd, unit not given): 2.9 +/− 0.8
- Free Gd ([6]; synthesis time 4 hrs): 17,467 +/− 9.4 ppm
- Free Gd ([6]; synthesis time 8 hrs): 3,448 +/− 8.9 ppm
- Free Gd ([6]; synthesis time 12 hrs): 803 +/− 8.1 ppm

Compound: O=C([O-])CN1CCN(CC(=O)[O-])CCN(CC(=O)O)CCN(CC(=O)[O-])CC1.[Gd+3] [Example 2A, Gd-DOTA]
- Gd3+ after acid precipitation, range (upper value, down to undetectable) [7]: ≤ 15.9 ppm
- Gd3+ after acid precipitation ([7]; N=5): 8.6+/−9.2 ppm

Compound: CNC[C@H](O)[C@@H](O)[C@H](O)[C@H](O)CO.O=C([O-])CN1CCN(CC(=O)[O-])CCN(CC(=O)O)CCN(CC(=O)[O-])CC1.[Gd+3] [Gd-DOTA, gadoterate meglumine, reference compound]
- stability lower at pH 7.4 [8]: 7 orders of magnitude
- in-bottle measured free gadolinium ([3]; commercial product stored in bottle): 10^13 Gd3+ ions in 100 ml of GCA product

- Free Gd(III), MEAN [9]: 30,989 +/− 9410 ppm
Compound: Gd-DOTA [Example 4]
